Test results as given in paper PMC3048380, “Crystal Structure of an Integron Gene Cassette-Associated Protein from Vibrio cholerae Identifies a Cationic Drug-Binding Module” (PLoS ONE, 2011).
Where two headings read alike, the source gives them in different places.

Tests used:
(E134Q)Cass2 = (E134Q)Cass2 (Vibrio cholerae, UniProt D0VX23, E134Q); conditions: pH 7.5; read-out: Ligand binding affinity KD, Cass2 E134Q
Cass2 = Cass2 (Vibrio cholerae, UniProt D0VX23); conditions: tryptophan fluorescence quenching, 24°C, pH 7.5; read-out: Ligand binding affinity KD, Cass2 wt
Procedure: Fluorescence assays were used to detect binding of compounds to Cass2 and related mutants. Concentrated ligand solutions in Buffer B were titrated into a 400 µl sample of protein (180 nM in Buffer B) and Trp fluorescence monitored.
Fluorescence intensities were recorded at 22°C with a PerkinElmer LS55 fluorescence spectrophotometer using a 1 cm×0.2 cm quartz cell. […] Thus, fluorescence quenching was monitored by recording emission at 350 nm for all samples following excitation at 295 nm (slit widths 10 and 5 nm, respectively) with an integration time of 5 s. All readings were corrected for buffer background emission and sample dilution. Inner-filter effects were measured by titrating each compound into a 1.3 µM sample of tryptophan in Buffer B and the relative fluorescence quenching (ΔF) corrected as follows [64]:
ΔF = (F 0−F C (F W0/F WC))/F 0 where F 0 = fluorescence intensity of protein sample, F C = fluorescence intensity of protein with added compound, F W0 = fluorescence intensity of free tryptophan solution, F WC = fluorescence of tryptophan solution with added compound.
Standard deviation was calculated for the individual ΔF values from three independent experiments. […]

BmrR [1] = conditions: equilibrium dialysis methods; read-out: Ligand binding affinity KD, BmrR wt; cited from earlier work
BmrR [2] = conditions: isothermal titration calorimetry binding assays; read-out: Ligand binding affinity KD, BmrR wt; cited from earlier work

benzalkonium chloride
Kd ((E134Q)Cass2): 300 ± 60 nM
Kd (Cass2): 100 nM

c1ccc([P+](c2ccccc2)(c2ccccc2)c2ccccc2)cc1 [tetraphenylphosphonium (TPP), tetraphenylphosphonium chloride]
Kd (BmrR [1]): 100000 nM
Kd (BmrR [2]): 74000 ± 20500 nM
Kd ((E134Q)Cass2): 200 ± 130 nM
Kd (Cass2): 200 ± 80 nM
